# Legend:
# [1] = molecular target: T1, Human NaV1.7 (Homo sapiens, UniProt Q15858); assay: Ionworks Barracuda (IWB) automated patch clamp assay; assay type: cell-based; conditions: human NaV1.7 currents in HEK cells, population patch clamp, state- and use-dependent voltage protocol; read-out: hNaV1.7 IWB-U IC50
# T1 construct: expressed in transfected cells; host or cells: Spiking HEK cells (without Kir2.1 transfection)
# Protocol: Ionworks Barracuda (IWB) Automated Patch Clamp Assay (Same Protocol for Both Hu Man and Mouse)
# Human NaV1.7 currents were recorded in population patch-clamp mode with the IWB automated electrophysiology system (Molecular Devices, LLC, Sunnyvale, Calif.). Spiking HEK cells (without Kir2.1 transfection) were cultured and prepared for recordings as previously described for IonWorks Quattro testing^1. The external solution consisted of the following (in mM): NaCl 140, KCl 5, CaCl2 2, MgCl2 1, HEPES 10, and glucose 11, pH 7.4, with N-methyl-D-glucamine at 320 mOsmol. […] From a holding potential of −110 mV, currents were elicited by a train of 26 depolarizations of 150 ms duration to −20 mV at a frequency of 5 Hz. Cells were then clamped to −20 mV for a period of 4 minutes in the presence of a single concentration of test compound. Following this compound incubation period, cells were clamped to −110 mV for three seconds to recover unbound channels and put through the same 26 pulse voltage protocol as above. Peak inward current during the 26th pulse to −20 mV in the presence of compound was divided by the peak inward current evoked by the 26th pulse to −20 mV in the absence of compound to determine percent inhibition. Concentration-response curves of percent inhibition as a function of concentration were generated to calculate IC50 values as described in Kornecook, T. J.; Yin, R.; Altmann, S.; et al. Pharmacologic Characterization of AMG8379, a Potent and Selective Small Molecule Sulfonamide Antagonist of the Voltage-Gated Sodium Channel NaV1. 7.
# The potency of the compounds of the present invention were evaluated on human NaV1.7 channels using the above described IonWorks Barracuda automated electrophysiology platform that evaluates the ability of compounds to block sodium conductance through NaV1.7 channels. A voltage-protocol that prosecutes both state-dependent as well as use-dependent inhibition was used as these modes of action are thought to be more relevant for the native state of NaV1.7 channels in pain sensing neurons in vivo.
# [2] = system: CYP3A4; assay: Human CYP 3A4 induction assay (mRNA, cryopreserved human hepatocytes); assay type: in vitro ADME
# Protocol: Human CYP 3A4 Induction Assay
# Cryopreserved human hepatocytes were seeded in 96-well collagen coated plates at 70,000 cells per well in hepatocyte plating media (HPM, final concentrations: 1× Dulbecco's Modified Eagle's Medium, 0.1 μM dexamethasone, 10% fetal bovine serum, 1× ITS, 1×PSG) followed by incubation at 37° C. under 5% CO2 and 90% relative humidity for 2 days to allow hepatocytes to form a confluent layer. On Day 3, hepatocytes were treated with either test compound or rifampin (20 μM, positive control for CYP3A induction) prepared in hepatocyte incubation media ((HIM, final concentrations: 1× William's Medium E, 0.1 μM dexamethasone, 1×ITS, 1×PSG). Treatment was performed for 72 hours with either 2 concentrations (2 μM or 10 μM) or a range of concentrations (0.001 μM to 100 μM) of the test compound to obtain full dose-response curve. Fresh media containing the relevant concentrations of the test compound was replaced every day until the samples were processed. After 72 hours of incubation, samples were processed for mRNA analysis using bDNA technology using manufacturer's instructions (Affymetrix, Fremont, Calif.). Cell viability was tested at the end of the experiment using MTT assay kit (Roche Diagnostics, Basel, Switzerland). Data was analyzed and presented as percent of control (POC) and Emax and EC50 obtained when appropriate according to guidance from Center for Drug Evaluation and Research (CDER), 2006, Guidance for Industry, Drug Interaction Studies—Study Design, Data Analysis, and Implications for Dosing and Labeling.
# Cryopreserved human hepatocytes were seeded in 96-well collagen coated plates at 70,000 cells per well in hepatocyte plating media (HPM, final concentrations: 1× Dulbecco's Modified Eagle's Medium, 0.1 μM dexamethasone, 10% fetal bovine serum, 1×ITS, 1×PSG) followed by incubation at 37° C. under 5% CO2 and 90% relative humidity for 2 days to allow hepatocytes to form a confluent layer. On Day 3, hepatocytes were treated with either test compound or rifampin (20 μM, positive control for CYP3A induction) prepared in hepatocyte incubation media ((HIM, final concentrations: 1× William's Medium E, 0.1 μM dexamethasone, 1×ITS, 1×PSG). Treatment was performed for 72 hours with either 2 concentrations (2 μM or 10 μM) or a range of concentrations (0.001 μM to 100 μM) of the test compound to obtain full dose-response curve. Fresh media containing the relevant concentrations of the test compound was replaced every day until the samples were processed. After 72 hours of incubation, samples were processed for mRNA analysis using bDNA technology using manufacturer's instructions (Affymetrix, Fremont, Calif.). Cell viability was tested at the end of the experiment using MTT assay kit (Roche Diagnostics, Basel, Switzerland). Data was analyzed and presented as percent of control (POC) and Emax and EC50 obtained when appropriate, as described in Halladay, J. et al, 2012, An “all-inclusive” 96-well cytochrome P450 induction method: Measuring enzyme activity, mRNA levels, protein levels, and cytotoxicity from one well using cryopreserved human hepatocytes, Pharmacological and Toxicological Methods, 66:270-275.
# The cytochrome P450 (CYP) is a well-known superfamily of enzymes that are responsible for the oxidative and reductive metabolic transformation of medications used in clinical practice. In addition, the CYP enzymes are commonly associated with causing many clinically relevant drug-drug interactions. Of the CYP enzymes, CYP3A4 is not only the most prevalent CYP enzyme in the liver and intestine, but is responsible for metabolism and elimination of approximately 50% of marketed drugs. In addition, CYP3A4 activity can be induced (or increased) or inhibited (decreased) in response to administration of certain drugs, thereby affecting concentrations of their own or certain concomitant drugs present in the body. […]
# [3] = human hepatocytes, 10 uM test compound, 72 hours, mRNA, percent of control (rifampin positive control)
# T1 sequence (Q15858 whole entry): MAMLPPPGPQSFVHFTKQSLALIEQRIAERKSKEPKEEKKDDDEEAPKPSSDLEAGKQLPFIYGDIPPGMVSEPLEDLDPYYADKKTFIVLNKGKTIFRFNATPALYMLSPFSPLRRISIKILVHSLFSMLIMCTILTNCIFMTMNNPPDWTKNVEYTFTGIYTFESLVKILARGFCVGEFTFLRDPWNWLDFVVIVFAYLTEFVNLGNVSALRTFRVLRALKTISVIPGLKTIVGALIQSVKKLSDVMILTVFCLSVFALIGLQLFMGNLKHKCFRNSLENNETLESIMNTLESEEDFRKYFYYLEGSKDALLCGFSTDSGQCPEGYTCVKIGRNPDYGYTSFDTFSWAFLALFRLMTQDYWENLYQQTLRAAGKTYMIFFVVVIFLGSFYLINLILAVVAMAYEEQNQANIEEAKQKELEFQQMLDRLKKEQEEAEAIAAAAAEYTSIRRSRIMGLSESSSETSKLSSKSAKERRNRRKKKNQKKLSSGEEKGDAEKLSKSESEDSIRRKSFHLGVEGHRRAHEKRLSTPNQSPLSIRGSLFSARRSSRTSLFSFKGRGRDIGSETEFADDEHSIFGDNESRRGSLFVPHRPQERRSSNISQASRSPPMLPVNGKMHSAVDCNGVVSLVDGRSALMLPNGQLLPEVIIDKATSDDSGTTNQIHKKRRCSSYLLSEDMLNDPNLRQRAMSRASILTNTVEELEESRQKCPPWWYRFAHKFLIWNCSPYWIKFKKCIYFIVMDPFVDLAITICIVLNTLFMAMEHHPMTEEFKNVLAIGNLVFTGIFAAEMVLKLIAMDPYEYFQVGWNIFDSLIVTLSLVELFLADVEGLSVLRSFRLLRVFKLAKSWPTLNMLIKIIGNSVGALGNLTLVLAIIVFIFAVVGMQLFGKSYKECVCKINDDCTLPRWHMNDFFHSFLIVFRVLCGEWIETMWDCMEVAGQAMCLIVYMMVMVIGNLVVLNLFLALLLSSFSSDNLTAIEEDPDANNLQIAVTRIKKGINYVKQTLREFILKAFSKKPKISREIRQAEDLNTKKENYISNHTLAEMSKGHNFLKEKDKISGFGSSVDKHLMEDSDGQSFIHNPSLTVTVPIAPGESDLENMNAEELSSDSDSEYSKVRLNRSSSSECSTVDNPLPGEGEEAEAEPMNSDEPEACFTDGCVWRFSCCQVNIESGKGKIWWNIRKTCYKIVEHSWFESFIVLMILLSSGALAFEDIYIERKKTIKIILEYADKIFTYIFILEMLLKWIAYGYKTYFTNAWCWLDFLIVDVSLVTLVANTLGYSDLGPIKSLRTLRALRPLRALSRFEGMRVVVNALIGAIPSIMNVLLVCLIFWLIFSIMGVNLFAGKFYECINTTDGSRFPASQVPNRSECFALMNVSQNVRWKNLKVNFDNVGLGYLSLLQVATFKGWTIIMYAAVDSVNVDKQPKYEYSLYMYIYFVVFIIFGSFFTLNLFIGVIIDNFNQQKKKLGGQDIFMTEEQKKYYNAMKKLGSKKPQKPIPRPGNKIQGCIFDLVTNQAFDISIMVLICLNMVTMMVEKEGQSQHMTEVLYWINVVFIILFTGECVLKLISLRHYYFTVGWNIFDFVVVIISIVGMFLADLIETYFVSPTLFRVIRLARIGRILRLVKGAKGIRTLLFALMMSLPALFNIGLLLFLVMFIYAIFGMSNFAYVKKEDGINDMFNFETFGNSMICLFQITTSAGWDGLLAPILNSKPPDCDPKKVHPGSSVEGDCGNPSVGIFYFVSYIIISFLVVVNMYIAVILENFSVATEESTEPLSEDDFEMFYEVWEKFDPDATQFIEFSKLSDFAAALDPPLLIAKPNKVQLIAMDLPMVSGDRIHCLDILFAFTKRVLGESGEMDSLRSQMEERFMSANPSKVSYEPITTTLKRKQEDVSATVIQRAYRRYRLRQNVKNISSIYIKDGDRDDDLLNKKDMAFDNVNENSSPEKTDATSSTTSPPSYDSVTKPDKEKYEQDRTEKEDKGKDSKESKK
IC50 [1],"CYP3A4 mRNA Induct Hu 10 uM POC [2, 3]",CYP3A4 mRNA Induct Hu 10 uM POC ([2]; hepatocytes),SMILES
19 nM,46.59%,,"COc1cc([C@@H]2C[C@H]2C(F)(F)F)c(Cl)cc1-n1c(=O)ccc2cc(S(=O)(=O)Nc3cccnn3)ccc21 (atropisomer, axis not shown; (P)) [Example 14, (P)-1-(5-chloro-2-methoxy-4-((1R,2R)-2-(trifluoromethyl)cyclopropyl)phenyl)-2-oxo-N-(pyridazin-3-yl)-1,2-dihydroquinoline-6-sulfonamide]"
19 nM,35.39%,,"COc1cc([C@@H]2C[C@H]2C(F)(F)F)c(C)cc1-n1c(=O)ccc2cc(S(=O)(=O)Nc3ccon3)ccc21 (atropisomer, axis not shown; (P)) [Example 26, (P)-N-(isoxazol-3-yl)-1-(2-methoxy-5-methyl-4-((1R,2R)-2-(trifluoromethyl)cyclopropyl)phenyl)-2-oxo-1,2-dihydroquinoline-6-sulfonamide]"
26 nM,,60.34%,"COc1cc([C@H]2C[C@H]2C2CC2)c(F)cc1-n1c(=O)ccc2cc(S(=O)(=O)Nc3ccon3)ccc21 (atropisomer, axis not shown; (P)) [Example 30, (P)-1-(4-((1S,2S)-[1,1′-bi(cyclopropan)]-2-yl)-5-fluoro-2-methoxyphenyl)-N-(isoxazol-3-yl)-2-oxo-1,2-dihydroquinoline-6-sulfonamide]"
4 nM,139.9%,,"COc1cc([C@H]2C[C@@H]2COC(F)(F)F)c(F)cc1-n1c(=O)ccc2cc(S(=O)(=O)Nc3ccon3)ccc21 (atropisomer, axis not shown; (P)) [Example 33, (P)-1-(5-fluoro-2-methoxy-4-((1S,2S)-2-((trifluoromethoxy)methyl)cyclopropyl)phenyl)-N-(isoxazol-3-yl)-2-oxo-1,2-dihydroquinoline-6-sulfonamide]"
8 nM,24.57%,,"COc1cc([C@@H]2C[C@H]2C(F)(F)F)c(F)cc1-n1c(=O)ccc2cc(S(=O)(=O)Nc3ccon3)c(F)cc21 (single isomer, unassigned) [Example 45]"

SMILES,IC50 [1],"CYP3A4 mRNA Induct Hu 10 uM POC [2, 3]",CYP3A4 mRNA Induct Hu 10 uM POC ([2]; hepatocytes)
"COc1cc([C@@H]2C[C@H]2COC(F)(F)F)c(F)cc1-n1c(=O)ccc2cc(S(=O)(=O)Nc3ccon3)ccc21 (atropisomer, axis not shown; (P)) [Example 32, (P)-1-(5-fluoro-2-methoxy-4-((1R,2R)-2-((trifluoromethoxy)methyl)cyclopropyl)phenyl)-N-(isoxazol-3-yl)-2-oxo-1,2-dihydroquinoline-6-sulfonamide]",9 nM,64.54%,
"COc1cc([C@@H]2C[C@H]2C(F)(F)F)c(F)cc1-n1c(=O)ccc2cc(S(=O)(=O)Nc3nncs3)ccc21 (atropisomer, axis not shown; (P)) [Example 40, (P)-1-(5-fluoro-2-methoxy-4-((1R,2R)-2-(trifluoromethyl)cyclopropyl)phenyl)-2-oxo-N-(1,3,4-thiadiazol-2-yl)-1,2-dihydroquinoline-6-sulfonamide]",8 nM,,
